Some targets named below: Cytochrome P450 2D6 (Homo sapiens, UniProt P10635); Cytochrome P450 3A4 (Homo sapiens, UniProt P08684); Cytochrome P450 2C9 (Homo sapiens, UniProt P11712).
Series [1] deals with T1, Calpain-2 catalytic subunit (Sus scrofa, UniProt P43367).
T1 sequence (P43367 whole entry): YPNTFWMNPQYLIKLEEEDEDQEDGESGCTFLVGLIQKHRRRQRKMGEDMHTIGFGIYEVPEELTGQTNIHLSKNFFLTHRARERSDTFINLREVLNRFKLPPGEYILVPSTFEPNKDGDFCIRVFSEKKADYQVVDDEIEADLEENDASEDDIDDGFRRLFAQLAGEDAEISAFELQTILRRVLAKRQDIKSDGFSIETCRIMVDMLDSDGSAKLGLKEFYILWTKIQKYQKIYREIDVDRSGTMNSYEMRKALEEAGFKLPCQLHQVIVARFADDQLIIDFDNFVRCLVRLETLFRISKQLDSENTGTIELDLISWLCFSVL
As to the kind of experiment: pig calpain II inhibitor potency, dose response, biochemical, fluorogenic peptide substrate (AID 1420). The series is classed as functional.

The target in the next series is T2, Cytochrome P450 1A2 (Homo sapiens, UniProt P05177).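 Note: PubChem cytochrome P450 panel assay, CYP1A2 panel member.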
T2 sequence (P05177 whole entry): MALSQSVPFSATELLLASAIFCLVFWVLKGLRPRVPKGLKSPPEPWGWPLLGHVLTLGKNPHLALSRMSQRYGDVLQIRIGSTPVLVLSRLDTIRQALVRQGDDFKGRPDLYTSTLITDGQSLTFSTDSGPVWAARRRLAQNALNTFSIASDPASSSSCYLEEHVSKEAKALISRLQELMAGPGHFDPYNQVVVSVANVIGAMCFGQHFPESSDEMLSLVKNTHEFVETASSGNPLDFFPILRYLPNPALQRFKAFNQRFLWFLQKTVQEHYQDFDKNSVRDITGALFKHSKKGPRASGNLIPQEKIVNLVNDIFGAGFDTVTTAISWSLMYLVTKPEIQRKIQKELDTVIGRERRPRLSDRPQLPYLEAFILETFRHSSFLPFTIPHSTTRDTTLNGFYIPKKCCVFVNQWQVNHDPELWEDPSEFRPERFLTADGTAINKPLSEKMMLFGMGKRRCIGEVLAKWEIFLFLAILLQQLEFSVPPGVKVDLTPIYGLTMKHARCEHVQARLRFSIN

Series [2] concerns Streptococcus sp. 'group A'. The series is described as follows: growth inhibition of control SK(-) GAS strain, dose response, counter-screen for streptokinase expression inhibitor project, luminescence, kanamycin, BacTiterGlo, confirmation (AID 1900). The series is classed as functional, organism-based.
The target in series [3] is Luciferin 4-monooxygenase (Photinus pyralis, UniProt P08659). The series is described as follows: firefly luciferase enzyme inhibitors, dose response, biochemical, luminescence (AID 1891).
The nature of series [4]: Luminescence Cell-Based Dose Confirmation HTS to Identify Inhibitors of Platelet Dense Granule Release. [Related pubchem assays: 1663 (Primary HTS), 1678 (Summary of Project)]. The series is classed as functional.
Another series concerns Streptococcus. The series is described as follows: Group A Streptococcus viability loss, dose response, counter-screen for streptokinase expression inhibitor project, luminescence, BacTiterGlo (AID 1915).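 Note: potency for reduction of bacterial viability or growth.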 In kind it is functional, organism-based. (In general: Counterscreens check selectivity or assay interference.)
Series [5] can be described thus: Luminescence Cell-Based Dose Retest to Confirm Inhibitors of Cancer Stem Cells. [Related pubchem assays (depositor defined):AID2717, AID2721]. To be noted: Homo sapiens. In kind it is functional.
The target of a further series is Cytochrome P450 2C19 (Homo sapiens, UniProt P33261). The series is described as follows: Cytochrome panel assay with activity outcomes. Panel member name: p450-cyp2c19 Compounds with AC50 equal or less than 10 uM are considered active. In kind it is functional.
The target of a further series is T3, Protein skinhead-1 (Caenorhabditis elegans, UniProt P34707).
T3 sequence (P34707 whole entry): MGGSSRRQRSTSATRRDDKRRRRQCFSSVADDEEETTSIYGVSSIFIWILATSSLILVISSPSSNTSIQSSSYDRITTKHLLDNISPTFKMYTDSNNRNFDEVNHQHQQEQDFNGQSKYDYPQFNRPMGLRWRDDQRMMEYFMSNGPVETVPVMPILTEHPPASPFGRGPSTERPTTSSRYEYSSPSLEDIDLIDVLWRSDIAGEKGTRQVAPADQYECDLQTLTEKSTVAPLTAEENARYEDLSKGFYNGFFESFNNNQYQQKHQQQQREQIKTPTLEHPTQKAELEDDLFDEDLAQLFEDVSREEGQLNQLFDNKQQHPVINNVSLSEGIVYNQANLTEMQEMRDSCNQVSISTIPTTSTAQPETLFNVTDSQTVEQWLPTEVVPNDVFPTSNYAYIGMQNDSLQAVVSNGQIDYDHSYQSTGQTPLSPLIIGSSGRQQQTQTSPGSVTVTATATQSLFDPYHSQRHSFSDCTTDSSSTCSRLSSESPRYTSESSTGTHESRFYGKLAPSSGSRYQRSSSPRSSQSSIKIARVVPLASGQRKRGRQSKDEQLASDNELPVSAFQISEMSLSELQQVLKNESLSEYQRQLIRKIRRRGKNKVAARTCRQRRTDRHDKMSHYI
In kind it is functional.

In a further series the target is T4, Streptokinase A (Streptococcus pyogenes serotype M1, UniProt P10520).
T4 sequence (P10520 whole entry): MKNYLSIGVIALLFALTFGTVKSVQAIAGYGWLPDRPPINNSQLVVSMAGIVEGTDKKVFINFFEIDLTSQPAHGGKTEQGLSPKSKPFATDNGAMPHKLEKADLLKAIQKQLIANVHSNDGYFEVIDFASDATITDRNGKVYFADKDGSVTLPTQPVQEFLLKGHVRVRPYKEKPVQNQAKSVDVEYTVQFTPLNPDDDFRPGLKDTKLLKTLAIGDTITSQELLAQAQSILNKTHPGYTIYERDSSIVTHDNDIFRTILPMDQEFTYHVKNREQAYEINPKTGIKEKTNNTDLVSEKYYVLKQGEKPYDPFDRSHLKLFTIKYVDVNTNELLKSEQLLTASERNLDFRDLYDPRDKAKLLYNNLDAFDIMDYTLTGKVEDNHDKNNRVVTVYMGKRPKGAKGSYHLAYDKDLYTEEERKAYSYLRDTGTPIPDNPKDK
As to the kind of experiment: S. pyogenes streptokinase expression inhibitors, potency, dose response, plasminogen activation absorbance, OD405 (AID 1914).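 Note: secreted streptokinase activity via plasminogen activation per viability signal from cell pellet.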 The series is classed as functional, Streptococcus pyogenes M1 GAS.

A further series is described as follows: cells. In kind it is functional.
Series [6] in a line: Shn3 3'UTR reporter inhibitors, dose response, cell-based, Clone20 osteoblasts, firefly luciferase, cherry-picked (AID 624132).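 Note: firefly luciferase luminescence from reporter carrying the Shn3 3'UTR in osteoblasts.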 In kind it is functional.

Active and inactive are the calls of the source.

Cytochrome P450 2C19, sequence (P33261 whole entry): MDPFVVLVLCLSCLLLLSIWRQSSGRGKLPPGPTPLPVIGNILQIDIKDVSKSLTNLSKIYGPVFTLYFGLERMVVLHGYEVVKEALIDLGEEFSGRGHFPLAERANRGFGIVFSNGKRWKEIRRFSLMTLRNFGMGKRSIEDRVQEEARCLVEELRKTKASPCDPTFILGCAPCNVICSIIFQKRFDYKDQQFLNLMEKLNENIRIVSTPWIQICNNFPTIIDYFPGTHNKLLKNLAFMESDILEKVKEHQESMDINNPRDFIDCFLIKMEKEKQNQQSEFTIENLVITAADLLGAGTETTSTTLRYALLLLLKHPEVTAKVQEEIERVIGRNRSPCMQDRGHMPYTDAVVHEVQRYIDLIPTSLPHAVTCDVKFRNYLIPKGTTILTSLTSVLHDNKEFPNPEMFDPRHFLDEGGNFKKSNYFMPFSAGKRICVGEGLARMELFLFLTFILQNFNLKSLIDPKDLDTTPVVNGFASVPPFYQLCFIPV
Luciferin 4-monooxygenase, sequence (P08659 whole entry): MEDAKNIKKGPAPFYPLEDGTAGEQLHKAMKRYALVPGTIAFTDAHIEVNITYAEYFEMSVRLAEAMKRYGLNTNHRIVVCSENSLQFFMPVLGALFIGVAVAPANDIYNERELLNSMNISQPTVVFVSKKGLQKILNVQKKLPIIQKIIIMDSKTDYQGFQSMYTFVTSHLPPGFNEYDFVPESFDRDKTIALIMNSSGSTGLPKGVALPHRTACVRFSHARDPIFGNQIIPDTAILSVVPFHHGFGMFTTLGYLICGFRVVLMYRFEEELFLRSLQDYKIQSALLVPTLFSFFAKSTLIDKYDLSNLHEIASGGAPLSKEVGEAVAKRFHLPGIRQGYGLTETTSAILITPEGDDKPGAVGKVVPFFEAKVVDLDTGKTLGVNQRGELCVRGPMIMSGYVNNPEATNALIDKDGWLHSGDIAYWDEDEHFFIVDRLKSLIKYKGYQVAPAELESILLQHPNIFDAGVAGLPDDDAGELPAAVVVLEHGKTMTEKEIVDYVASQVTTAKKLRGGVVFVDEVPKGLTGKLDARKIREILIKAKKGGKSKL
Cytochrome P450 2D6, sequence (P10635 whole entry): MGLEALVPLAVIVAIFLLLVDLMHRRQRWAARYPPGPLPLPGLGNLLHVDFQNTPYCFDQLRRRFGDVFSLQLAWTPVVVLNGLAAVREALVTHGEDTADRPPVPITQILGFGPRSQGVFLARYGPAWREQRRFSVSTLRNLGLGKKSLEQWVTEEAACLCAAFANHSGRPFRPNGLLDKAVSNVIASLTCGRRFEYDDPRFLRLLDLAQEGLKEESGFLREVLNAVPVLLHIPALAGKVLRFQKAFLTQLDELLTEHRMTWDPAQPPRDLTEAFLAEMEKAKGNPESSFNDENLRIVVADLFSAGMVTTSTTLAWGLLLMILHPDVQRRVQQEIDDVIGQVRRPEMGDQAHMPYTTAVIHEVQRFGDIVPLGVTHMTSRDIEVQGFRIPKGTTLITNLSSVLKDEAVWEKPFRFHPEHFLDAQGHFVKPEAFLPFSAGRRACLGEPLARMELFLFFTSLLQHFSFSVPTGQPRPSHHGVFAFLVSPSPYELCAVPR
Cytochrome P450 3A4, sequence (P08684 whole entry): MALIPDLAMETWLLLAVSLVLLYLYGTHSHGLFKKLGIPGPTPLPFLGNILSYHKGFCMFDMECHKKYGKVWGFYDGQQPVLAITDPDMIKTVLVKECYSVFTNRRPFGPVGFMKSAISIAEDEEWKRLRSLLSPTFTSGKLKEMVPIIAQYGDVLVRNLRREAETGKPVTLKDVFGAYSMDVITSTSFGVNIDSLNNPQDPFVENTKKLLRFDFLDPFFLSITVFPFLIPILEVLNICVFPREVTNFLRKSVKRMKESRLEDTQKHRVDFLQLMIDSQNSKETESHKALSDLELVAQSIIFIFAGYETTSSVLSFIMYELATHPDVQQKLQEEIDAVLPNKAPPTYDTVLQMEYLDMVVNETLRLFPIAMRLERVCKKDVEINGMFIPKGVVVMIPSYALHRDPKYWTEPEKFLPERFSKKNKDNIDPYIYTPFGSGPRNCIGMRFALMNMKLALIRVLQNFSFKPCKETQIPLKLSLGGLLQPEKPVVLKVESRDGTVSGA
Cytochrome P450 2C9, sequence (P11712 whole entry): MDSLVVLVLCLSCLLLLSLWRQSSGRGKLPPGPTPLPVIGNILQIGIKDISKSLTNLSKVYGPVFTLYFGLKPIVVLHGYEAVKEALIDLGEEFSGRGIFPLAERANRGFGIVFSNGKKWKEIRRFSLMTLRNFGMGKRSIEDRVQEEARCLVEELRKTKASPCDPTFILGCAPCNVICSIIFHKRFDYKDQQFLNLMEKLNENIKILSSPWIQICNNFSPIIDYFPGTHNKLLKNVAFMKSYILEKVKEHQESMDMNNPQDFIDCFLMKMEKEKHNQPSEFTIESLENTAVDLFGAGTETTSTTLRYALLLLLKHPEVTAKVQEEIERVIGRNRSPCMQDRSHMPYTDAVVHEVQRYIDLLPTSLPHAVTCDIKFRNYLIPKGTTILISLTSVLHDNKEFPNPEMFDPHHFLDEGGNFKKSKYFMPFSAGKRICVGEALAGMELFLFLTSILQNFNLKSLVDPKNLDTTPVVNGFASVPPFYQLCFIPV

Take `Cc1ccc(CNC(=O)c2ccc3c(=O)n(CC4CCCO4)c(=S)[nH]c3c2)cc1` (stereo not drawn): the concentration for half-maximal inhibition (IC50) in series [1] is 1.19 µM (not active).

Regarding `O=C(O)[C@@H]1[C@@H]2C[C@H]3c4[nH]c5ccccc5c4CCN3C[C@@H]2CC[C@@H]1O`, the half-maximal activity concentration (AC50) was 7.94 µM (inconclusive) at Cytochrome P450 2D6 and 12.6 µM (inconclusive) at Cytochrome P450 1A2.

Consider `COc1ccc(C2=Nc3cccc4cccc(c34)N2)cc1`, for which the half-maximal activity concentration (AC50) on Cytochrome P450 2D6 was 1.41 µM (inconclusive).

Take `O=C(c1ccc(F)cc1)c1cc2ccc(O)cc2oc1=O`: the EC50 in series [2] is 10.7 µM (active); in [3] it was 0.731 µM (active); in [4], 0.457 µM (active); in the series on Streptococcus it was 15.7 µM (active). Regarding `Cc1ccc(NC(=O)CSc2nsc(SCC(=O)Nc3ccc(C)cc3C)c2C#N)c(C)c1`, the concentration for half-maximal inhibition (IC50) in [1] is reported as > 50 µM (not active). As for `O=c1cc(N2CCCCC2)c(-c2ccccc2)nn1Cc1cccc(F)c1`, the IC50 in [1] is on record as > 50 µM (not active). Also, the AC50 in series [5] was 4.74 µM (active). On to `CC1(C)N=C(N)N=C(N)N1c1cccc(OCc2cccc([N+](=O)[O-])c2)c1`, for which the results for the AC50 entry at Cytochrome P450 2C19, on Cytochrome P450 2D6 and on Cytochrome P450 1A2 were “inconclusive”, 3.16 µM (inconclusive) and 5.01 µM (inconclusive), respectively. With `O=S(=O)(Nc1ccc(-c2ccc3nncn3n2)cc1)c1ccccc1Cl`, the results for the EC50 in series [3] and in series [4] were > 112 µM (not active) and 51.9 µM (active), respectively. In the case of `Clc1ccc(CNc2ccc3nnc(-c4ccccc4)n3n2)cc1`, the half-maximal effective concentration (EC50) in series [3] and in series [4] was > 112 µM (not active) each time. With `COC(=O)c1cc2sccc2n1Cc1ccc(C)cc1`, at Protein skinhead-1, the IC50 was > 100 µM (inactive). As for `CNC(=O)c1c(NC(=O)c2ccc(N3C(=O)CCC3=O)cc2)sc2c1CCC(C)C2` (stereo not drawn), the EC50 in series [2] is 20.7 µM (active); on Streptokinase A, > 150 µM (not active); in the series with Streptococcus, 103 µM (active). The IC50 on Protein skinhead-1 was > 100 µM (inactive).

Turning to `O=c1c2ccccc2ncn1-c1ccc(Cl)cc1Cl`, the IC50 at Protein skinhead-1 is > 100 µM (inactive).

For `CSc1nc2c(c(-c3ccc(O)cc3)c1C#N)CCC2`, the 50% effective concentration (EC50) in [3] and in series [4] was > 112 µM (not active) each time. Turning to `CCn1nc(CCC(=O)O)c2ccccc2c1=O`, the IC50 on Protein skinhead-1 was > 100 µM (inactive).

As for `O=C(CNC(=O)c1ccccc1)NCC(=O)OCc1ccc(Cl)cc1`, the concentration at half-maximal activity (AC50) was 20 µM (inconclusive) at Cytochrome P450 2C19 (read-out: AC50), 20 µM (inconclusive) on Cytochrome P450 2D6, 14.1 µM (inconclusive) at Cytochrome P450 3A4 and 0.1 µM (inconclusive) at Cytochrome P450 2C9. On to `COc1ccc(/C=N/N=C(\N)c2nonc2N)cc1`, for which the EC50 in series [3] was 3.82 µM (active); in series [4] it was 2.67 µM (active). With `COc1ccc2[nH]cc(CCNc3ncnc4ccc(-c5ccc(C(=O)N(C)C)cc5)cc34)c2c1`, the half-maximal activity concentration (AC50) on Cytochrome P450 2D6 was 25.1 µM (inconclusive); on Cytochrome P450 1A2, 12.6 µM (inconclusive). On to `O=C(NCCCN1CCOCC1)C1(c2ccccc2)CCCC1`, for which the EC50 in [3] and in series [4] was > 112 µM (not active) each time. Regarding `O=C(N/N=C/c1cccnc1)c1ccc([N+](=O)[O-])cc1`, the AC50 on Cytochrome P450 2D6 is 14.1 µM (inconclusive). With `CCCN1CCc2cccc3c2[C@@H]1Cc1ccc(O)c(O)c1-3`, the AC50 at Cytochrome P450 2D6 is 10 µM (inconclusive); at Cytochrome P450 3A4 it was 12.6 µM (inconclusive). Consider `CC(C)c1onc(C(=O)Nc2cccnc2Cl)c1[N+](=O)[O-]`, for which the concentration for half-maximal inhibition (IC50) in series [1] is given as 22.5 µM (not active). In the case of `Cc1ccc2nc(C)c3c(c2c1)COC3`, in “cells”, the IC50 was > 50 µM (active). In the case of `CN(CCc1ccccn1)C(=S)NC(=O)c1ccco1`, in series [1], the IC50 was 19 µM (not active).

As for `Cc1ccccc1C(=O)NC(CC(C)C)C(=O)Nc1ccc(S(N)(=O)=O)cc1` (stereo not drawn), the concentration for a half-maximal effect (EC50) in series [3] and in [4] was > 112 µM (not active) each time. With `Cc1ccc(C)c(N2CCN(S(=O)(=O)c3ccc4nc(O)ccc4c3)CC2)c1`, in [6], the AC50 was 24.2 µM (active). Take `COc1ccc(C(NC(=O)c2ccc(-c3ccccc3)cc2)c2ccccc2)cc1` (stereo not drawn): the IC50 in series [1] is listed as > 50 µM (not active). As for `O=C(CCN1CCC(c2ccccc2)C1)c1ccccc1` (stereo not drawn), in the series “cells”, the concentration for half-maximal inhibition (IC50) was 31.7 µM (active). As to `Cc1c(Cl)cccc1NC(=O)CC1NCCNC1=O` (stereo not drawn), the AC50 was 39.8 µM (inconclusive) at Cytochrome P450 2C19 (read-out: AC50) and 20 µM (inconclusive) at Cytochrome P450 3A4. Moreover, at Protein skinhead-1, the IC50 is > 100 µM (inactive). With `CCN(CC(=O)NCc1ccc(F)cc1)Cc1nc(O)c2ccc(Cl)cc2n1`, the IC50 on Protein skinhead-1 was > 100 µM (inactive).

Consider `Cc1nc2cnc(Nc3ccccc3)nc2n(C)c1=O`, for which the AC50 on Cytochrome P450 2D6 is 39.8 µM (inconclusive); on Cytochrome P450 3A4, 15.8 µM (inconclusive); at Cytochrome P450 2C9, 20 µM (inconclusive). Consider `Cc1cc(/C=C(\C#N)C(=O)Nc2ccc(F)cc2)c(C)n1-c1ccc(N2CCOCC2)c([N+](=O)[O-])c1`, for which the IC50 at Protein skinhead-1 is > 100 µM (inactive). For `Cc1ccc(/C=C2/C(=O)NC(=O)N(CCc3ccc(F)cc3)C2=O)s1`, the half-inhibitory concentration (IC50) in the series “cells” was 39.2 µM (active). Take `O=C(NC1CCCCC1)N1CCC(c2nc(-c3ccc(S(=O)(=O)N4CCCC4)cc3)no2)CC1`: the half-maximal effective concentration (EC50) in [3] and in series [4] was > 112 µM (not active) in each case. With `CC(/C=C(\O)c1ccc(C)cc1)=N\c1cccc(O)c1`, in [1], the half-maximal inhibitory concentration (IC50) is given as 4.68 µM (not active). In the case of `CN(C)c1ccc(-c2cncnc2NCc2cccs2)cc1`, the concentration at half-maximal activity (AC50) at Cytochrome P450 2D6 was 39.8 µM (inconclusive). `CCOc1ccc(Nc2ccc([N+](=O)[O-])c3nonc23)cc1`: the IC50 in “cells” is 5.59 µM (active); on Protein skinhead-1, > 100 µM (inactive).

A word on the IC50: it is the concentration that inhibits the measured activity by half. As usually defined, the AC50 is the concentration at which the activity in the assay is half-maximal. A word on the EC50: it is the midpoint of the concentration-response curve.

The values above are taken from ChEMBL document CHEMBL1201862, “PubChem BioAssay data set” (2004).
